Series [1] concerns HELAN = sunflower (Helianthus annuus). Briefly: Postemergence herbicidal activity, sunflower. It is filed as in vivo. The conditions noted are these: post-emergence, 336 h, post-emergent, rate 140 g ai/ha, visual score after 14 days (0 no injury, 100 complete kill), read-out: % Growth Reduction HELAN. On the procedure: (§1) Evaluation of Postemergence Herbicidal Activity
(§2) Seeds or nutlets of the desired test plant species were planted in Sun Gro MetroMix® 306 planting mixture, which typically has a pH of 6.0 to 6.8 and an organic matter content of about 30 percent, in plastic pots with a surface area of 64 square centimeters. When required to ensure good germination and healthy plants, a fungicide treatment and/or other chemical or physical treatment was applied. The plants were grown for 7-21 days in a greenhouse with an approximate 15 hour photoperiod which was maintained at about 23-29° C. during the day and 22-28° C. during the night. Nutrients and water were added on a regular basis and supplemental lighting was provided with overhead metal halide 1000-Watt lamps as necessary. The plants were employed for testing when they reached the first or second true leaf stage.
(§3) A weighed amount, determined by the highest rate to be tested, of each test compound was placed in a 25 mL glass vial and was dissolved in 4 mL of a 97:3 v/v (volume/volume) mixture of acetone and dimethyl sulfoxide (DMSO) to obtain concentrated stock solutions. […] The concentrated stock solutions obtained were diluted with 20 mL of an aqueous mixture containing acetone, water, isopropyl alcohol, DMSO, Atplus 411F crop oil concentrate, and Triton® X-155 surfactant in a 48.5:39:10:1.5:1.0:0.02 v/v ratio to obtain spray solutions containing the highest application rates. Additional application rates were obtained by serial dilution of 12 mL of the high rate solution into a solution containing 2 mL of 97:3 (v/v) mixture of acetone and dimethyl sulfoxide (DMSO) and 10 mL of an aqueous mixture containing acetone, water, isopropyl alcohol, DMSO, Atplus 411F crop oil concentrate, and Triton X-155 surfactant in a 48.5:39:10:1.5:1.0:0.02 (v/v) ratio to obtain 1/2 ×, 1/4 ×, 1/8× and 1/16× rates of the high rate. Compound requirements are based upon a 12 mL application volume at a rate of 187 L/ha. Formulated compounds were applied to the plant material with an overhead Mandel track sprayer equipped with a 8002E nozzles calibrated to deliver 187 L/ha over an application area of 0.503 square meters at a spray height of 18 inches (43 cm) above the average plant canopy height. Control plants were sprayed in the same manner with the solvent blank.
(§4) The treated plants and control plants were placed in a greenhouse as described above and watered by sub-irrigation to prevent wash-off of the test compounds. After 14 days, the condition of the test plants as compared with that of the untreated plants was determined visually and scored on a scale of 0 to 100 percent where 0 corresponds to no injury and 100 corresponds to complete kill
(§5) By applying the well-accepted probit analysis as described by J. Berkson in Journal of the […], 48, 565 (1953) and by D. Finney in “Probit Analysis” Cambridge University Press (1952), the above data can be used to calculate GR50 and GR80 values, which are defined as growth reduction factors that correspond to the effective dose of herbicide required to kill or control 50 percent or 80 percent, respectively, of a target plant.

Series [2] relates to ABUTH = velvetleaf (Abutilon theophrasti). Briefly: Postemergence herbicidal activity, velvetleaf. In kind it is in vivo. The note with it: post-emergence, 336 h, post-emergent, rate 140 g ai/ha, visual score after 14 days (0 no injury, 100 complete kill), read-out: % Growth Reduction ABUTH. As for the experimental part: as §1, §2, §3, §4, §5
Series [3] concerns IPOHE = ivyleaf morningglory (Ipomoea hederacea). Nature of the series: Postemergence herbicidal activity, ivyleaf morningglory. It is filed as in vivo. The conditions noted are these: post-emergence, 336 h, post-emergent, rate 140 g ai/ha, visual score after 14 days (0 no injury, 100 complete kill), read-out: % Growth Reduction IPOHE. As for the experimental part: as §1, §2, §3, §4, §5

For series [4], the system named is EPHHL = wild poinsettia (Euphorbia heterophylla). Briefly: Postemergence herbicidal activity, wild poinsettia. In kind it is in vivo. The conditions noted are these: post-emergence, 336 h, post-emergent, rate 140 g ai/ha, visual score after 14 days (0 no injury, 100 complete kill), read-out: % Growth Reduction EPHHL. On the procedure: as §1, §2, §3, §4, §5
Series [5] concerns ECHCG = barnyardgrass (Echinochloa crus-galli). Nature of the series: Postemergence herbicidal activity, barnyardgrass. In kind it is in vivo. The note with it: post-emergence, 336 h, post-emergent, rate 140 g ai/ha, visual score after 14 days (0 no injury, 100 complete kill), read-out: % Growth Reduction ECHCG. As for the experimental part:
as §1, §2, §3, §4, §5

Series [6] deals with AMARE = redroot pigweed (Amaranthus retroflexus). Briefly: Postemergence herbicidal activity, redroot pigweed. The note with it: post-emergence, 336 h, post-emergent, rate 140 g ai/ha, visual score after 14 days (0 no injury, 100 complete kill), read-out: % Growth Reduction AMARE. In kind it is in vivo. As for the experimental part:
as §1, §2, §3, §4, §5

The test system of series [7] is CHEAL = lambsquarters (Chenopodium album). Briefly: Postemergence herbicidal activity, lambsquarters. The note with it: post-emergence, 336 h, post-emergent, rate 140 g ai/ha, visual score after 14 days (0 no injury, 100 complete kill), read-out: % Growth Reduction CHEAL. It is filed as in vivo. On the procedure: as §1, §2, §3, §4, §5

Here are results for four molecules from patent publication US8658568B2, “6-amino-2-substituted-5-vinylsilylpyrimidine-4-carboxylic acids and esters and 4-amino-6-substituted-3-vinylsilylpyridine-2-carboxylic acids and esters as herbicides” (Dow AgroSciences, LLC., priority 2011, dated 2014).

A word on the melting point: it is the temperature, or range, at which the solid turns liquid. For `COC(=O)c1nc(-c2ccc(Cl)c(OC)c2F)nc(N)c1/C=C/[Si](C)(C)C` [Compound 2, (E)-methyl 6-amino-2-(4-chloro-2-fluoro-3-methoxyphenyl)-5-(2-(trimethylsilyl)vinyl)-pyrimidine-4-carboxylate], the melting point lay within 161 to 163 °C. In addition, the pest or weed control at 140 g/ha in series [1] was determined as 100%. Further, in series [2], the pest or weed control at 140 g/ha worked out at 98%. For the same molecule, in series [3], the pest or weed control at 140 g/ha turned out to be 90%. Besides, the pest or weed control at 140 g/ha in series [4] was 100%. The pest or weed control at 140 g/ha in series [5] amounted to 98%. Besides, the pest or weed control at 140 g/ha in series [6] amounted to 100%.
`COc1c(Cl)ccc(-c2nc(N)c(/C=C/[Si](C)(C)C)c(C(=O)O)n2)c1F` [Compound 6, (E)-6-amino-2-(4-chloro-2-fluoro-3-methoxyphenyl)-5-(2-(trimethylsilyl)vinyl)pyrimidine-4-carboxylicacid] displayed a melting point of 108 to 110 °C. The pest or weed control at 140 g/ha in series [7] was determined as 100%. The pest or weed control at 140 g/ha in series [1] amounted to 100%. Moreover, the pest or weed control at 140 g/ha in series [2] amounted to 100%. The pest or weed control at 140 g/ha in series [3] amounted to 95%. Further, the pest or weed control at 140 g/ha in series [4] was found to be 100%. Moreover, the pest or weed control at 140 g/ha in series [5] is 100%. Moreover, the pest or weed control at 140 g/ha in series [6] turned out to be 100%.
Molecule `COC(=O)c1nc(-c2ccc(Cl)cc2)c(F)c(N)c1/C=C/[Si](C)(C)C` [Compound 12, (E)-Methyl 4-amino-6-(4-chlorophenyl)-5-fluoro-3-(2-(trimethylsilyl)vinyl)picolinate] yielded a melting point of 113 to 115 °C. Moreover, in series [7], the pest or weed control at 140 g/ha was found to be 100%. For the same molecule, the pest or weed control at 140 g/ha in series [1] amounted to 90%. For the same molecule, the pest or weed control at 140 g/ha in series [2] was found to be 90%. Also, the pest or weed control at 140 g/ha in series [3] is 0%. For the same molecule, the pest or weed control at 140 g/ha in series [4] was determined as 80%. Also, in series [5], the pest or weed control at 140 g/ha worked out at 0%. In series [6], the pest or weed control at 140 g/ha came to 75%.
As to `C[Si](C)(C)/C=C/c1c(C(=O)O)nc(-c2ccc(Cl)cc2)c(F)c1N` [Compound 15, (E)-4-amino-6-(4-chlorophenyl)-5-fluoro-3-(2-(trimethylsilyl)vinyl)picolinic acid], the pest or weed control at 140 g/ha stood at 90% in series [7]; 90% in series [1]; 80% in series [2]; 70% in series [3]; 90% in series [4]; 80% in series [5]. Also, in series [6], the pest or weed control at 140 g/ha is 100%.
